Assay results taken from patent US7595300B2, “7-quinolyl ketolide antibacterial agents” (priority 2005, dated 2009).
≈ marks a conversion by molar mass, not a printed value. Where two headings read alike, the source gives them in different places.

Columns and labels:
[1] = Pharmacokinetics in the mouse, plasma and lung tissue; format: in vivo; conditions: oral gavage 10 mg/kg; for Lung AUC / Lung Cmax: mouse lung tissue
Method: The pharmacokinetics of compounds of formula (VIII) and compounds of formula (II) and (III) were measured in the mouse. Compounds were administered either intravenously (i.v.) at 1 mg/kg, or per oral gavage (p.o.) at 10 mg/kg. Plasma samples were taken and analyzed by LC/MS-MS. For lung tissue pharmacokinetics, lungs were removed and homogenized, followed by analyzis by LC/MS-MS.

anesthetized guinea pigs = experiment: Cardiovascular safety, QTc interval in anesthetized guinea pigs, i.v. bolus; format: in vivo, guinea pig; conditions: for QTc prolongation (% above vehicle): anesthetized guinea pig, incremental i.v. bolus doses 0.47 to 15 mg/kg
Method: (§1) Total doses of drug (0.47, 0.94, 1.88, 3.75, 7.5, and 15 mg/kg) or equivalent volumes of vehicle were administered incrementally as an i.v. bolus to groups of 6 anesthetized rats or guinea pigs at 0, 15, 30, 45, 60, and 75 minutes. Hemodynamic parameters including mean arterial pressure (MAP) and heart rate (HR), and ECG parameters (QT and PR intervals and QRS duration) were recorded. For the rat, injection of vehicle gave a 16% increase in QT interval over baseline. For the guinea pig, injection of vehicle gave a 3% increase in QT interval over baseline.

anesthetized rats = experiment: Cardiovascular safety, QT interval in anesthetized rats, i.v. bolus; format: in vivo, rat; conditions: for QT prolongation (% above vehicle): anesthetized rat, incremental i.v. bolus doses 0.47 to 15 mg/kg
Method: as §1

dog = experiment: Safety of intravenous dosing in dog models; conditions: intravenous 9 mg/kg
[2] = system: Streptococcus pneumoniae ATCC 6303; experiment: rat lower respiratory tract infection (lung pneumonia) model; format: in vivo; conditions: for Log CFU/g (avg, n = 8): rat lungs, 12 hours after the last dose
Method: The in vivo efficacy of compounds (II) and (III) were evaluated in a rat lower respiratory tract infection model. Groups of 8 rats were infected intratracheally with 0.5 mL containing 10^6 CFUs of Streptococcus pneumoniae ATCC 6303 in 5% hog gastric mucin. Compounds dissolved in ethanol were administered by oral gavage daily over 3 days starting 18 hours post-inoculation. Lungs were aseptically removed from survivors 12 hours after the last dose and examined for visible signs of infection, then homogenized in sterile PBS and plated for determination of CFUs by log plating on Columbia agar-nalidixic acid plates.

human hepG2 hepatocytes = experiment: In vitro hepatotoxicity, resazurin and Nile Red staining; format: cell-based; conditions: 100 μM
Method: In one experiment, hepatotoxicity was estimated by overnight incubation of compounds at 3, 10, 30, 100, or 300 μM with cultured rat or human hepG2 hepatocytes, followed by staining of the cells with resazurin to measure viability or with Nile Red to measure steatosis. The minimal drug concentration at which changes in dye binding were observed was noted as the minimal effective concentration. The compound of formula (VIII) wherein Z=3-quinolyl affected […] and steatosis in human HepG2 hepatocytes at 30 μM.

Streptococcus pneumoniae = experiment: MIC, NCCLS broth microdilution, respiratory pathogens; format: cell-based; conditions: S. pneumoniae
Method: (§2) Minimum inhibitory concentrations (“MICs”) were determined by the NCCLS broth microdilution procedure for susceptibility testing for bacteria that grow aerobically (National Committee for Clinical Laboratory Standards, 1997. Methods for dilution antimicrobial susceptibility tests for bacteria that grow aerobically, 4th ed. Approved standard. NCCLS Document M7-A4. National Committee for Clinical Laboratory Standards, Villanova, Pa.). Stock solutions were prepared on the day of the test and appropriate aliquots were added to cation adjusted Mueller-Hinton broth (CAMHB, DIFCO) or Haemophilus test media. Two-fold serial dilutions were prepared and added to wells in microtiter plates. Final test concentrations ranged from 8 to 0.004 ug/ml. Broth cultures of bacteria inoculated from growth on overnight plates for all test bacteria except Streptococcus pneumoniae and Haemophilus influenzae were incubated at 35° C. and then adjusted to the Kirby Bauer standard and diluted in CAMHB to achieve a final inoculum concentration of approximately 5×10^5 CFU/ml. Inocula for S. pneumoniae and H. influenzae were prepared by directly suspending colonies from an overnight plate, adjusting the turbidity and diluting as above. S. pneumoniae media was supplemented with 3% lysed horse blood. All plates were incubated in ambient air at 35° C. for 20-24 h for S. pneumoniae and Haemophilus influenzae and 16-20 h for all other bacteria.

M. catarrhalis = experiment: as above; format: cell-based; conditions: Moraxella catarrhalis
Method: as §2

S. pyogenes = experiment: as above; format: cell-based; conditions: Streptococcus pyogenes
Method: as §2

Haemophilus influenzae = experiment: as above; format: cell-based; conditions: H. influenzae
Method: as §2

male beagle dogs = experiment: Cardiovascular safety in telemetered dogs, intravenous infusion; format: in vivo, dog
Excerpt: Four male beagle dogs, obtained from Marshall Farms USA, Inc. (North Rose, N.Y.), were surgically instrumented with telemetry transducers (Data Sciences International, type RL11M2-D70-PCT) to assess arterial blood pressure (ABP) and lead II electrocardiogram (ECG) parameters.
The dosing route was an intravenous infusion jugular vein access). The infusion was accomplished using a CADD Prizm® ambulatory infusion pump attached to a jacket worn by the dog. The dose duration for the intravenous infusion was 30 min for all doses administered, except the last dose (30 mg/kg) where the infusion period was extended to 45 min to accommodate the larger dose volume required for this dose. The vehicle dose and diluent for the test article was 0.05-M sodium citrate in sterile water for injection.
There was one treatment group of four non-naïve dogs and the study was comprised of both pharmacokinetic and telemetry phases, as summarized in the dose administration table for compound (III) (Table 16) below. At least one week was given between dosings to allow clearance of the drug.
For the telemetry phase of the study, collection of hemodynamic and lead II ECG data commenced approximately 30 min prior to dosing and ended approximately 6 h post-dose. Systolic blood pressure (SBP), diastolic blood pressure (DBP), HR, and lead II ECG variables (PR interval, QRS duration, RR interval, and QT interval) were acquired continuously from each animal during each dose day recording session. The QT interval was corrected for variations in HR using the Fridericia's QTc interval (QTcF).
Data acquired following treatment with vehicle or compound (III) were extracted at −10, −5, 0, 10, 20, 30, 35, 45, 60, 90, 150, 270, and 390 min relative to the start dose time. For all blood pressure and ECG parameters, data following treatment with compound (III) were compared to the time-matched vehicle dose data. Statistical comparisons were made using a one-way ANOVA for repeated measures, followed by the Dunnett's post-hoc test when statistical significance was detected with the ANOVA. Changes were considered statistically significant when p<0.05.
A complete visual scan of the ECG waveforms from the vehicle, 11 mg/kg dose, and 15 mg/kg dose of compound (III) was conducted. All waveforms were examined for gross changes in waveform morphology and arrhythmogenesis.

[3] = genotype sensitive, read-out: MIC50
[4] = genotype sensitive, read-out: MIC90

CC1CC(N(C)C)C(O)C(O[C@@H]2[C@@H](C)C(=O)[C@](C)(F)C(=O)O[C@H](CCF)[C@@]3(C)OC(=O)N[C@@H]3[C@@H](C)C(=O)[C@H](C)C[C@@]2(C)OC/C=C/c2ccc3nccnc3c2)O1 (stereo partly shown) [H]
Lung AUC [1]: 11.0 ug/mL-h | Lung Cmax [1]: 3000 ng/mL | Plasma AUC ([1]; mouse plasma): 2.1 ug/mL-h | Plasma Cmax ([1]; mouse plasma): 670 ng/mL | QTc prolongation (% above vehicle) (anesthetized guinea pigs): 4 % above vehicle | QT prolongation (% above vehicle) (anesthetized rats): 15 % above vehicle | toxicity, severe clinical effects upon intravenous dosing (dog): extremely toxic

CC1CC(N(C)C)C(O)C(O[C@@H]2[C@@H](C)C(=O)[C@@H](C)C(=O)O[C@H](CCF)[C@@]3(C)OC(=O)N[C@@H]3[C@@H](C)C(=O)[C@H](C)C[C@@]2(C)OC/C=C/c2ccc3cccnc3c2)O1 (stereo partly shown) [Compound (II), 6-O-(1-(7-quinolyl)-3-propenyl)-11-amino-11-deoxy-3-(descladinosyl)-3-oxo-15-fluoroerythromycin A-11,12-cyclic carbamate]
Log CFU/g (avg, n = 8) ([2]; 0.5 mg/kg oral gavage daily over 3 days): 4.8 Log CFU/g | Log CFU/g (avg, n = 8) ([2]; 2.5 mg/kg oral gavage daily over 3 days): 4.3 Log CFU/g | % survivors ([2]; rat, 0.5 mg/kg oral gavage daily over 3 days): 78% | % survivors ([2]; rat, 2.5 mg/kg oral gavage daily over 3 days): 88% | reducing the bacterial load in the rat lungs and increasing survival relative to control animals ([2]; rat, oral gavage daily over 3 days): efficacious | Lung AUC [1]: 1.42 ug/mL-h | Lung Cmax [1]: 260 ng/mL | AUC ([1]; mouse plasma): 890 ng·h/mL | Cmax ([1]; mouse plasma): 260 ng/mL | QTc prolongation (% above vehicle) (anesthetized guinea pigs): 1 % above vehicle | effect on the QTc interval in the anesthetized guinea pig (anesthetized guinea pigs; guinea pig, cumulative doses up to 30 mg/kg, relative to vehicle controls): no statistically significant effects | effects on metabolic stability and steatosis (human hepG2 hepatocytes): No effects | MIC50 (Streptococcus pneumoniae; 20 h, genotype ermB + mef): 1 µg/mL | MIC50 (Streptococcus pneumoniae; genotype ermB): 0.12 µg/mL (≈ 0.153 µM) | MIC90 (Streptococcus pneumoniae; genotype ermB): 0.12 µg/mL (≈ 0.153 µM) | MIC90 (Streptococcus pneumoniae; genotype ermB + mef): 2 µg/mL | MIC50 (Streptococcus pneumoniae; genotype mef, read-out: MIC50): 0.25 µg/mL (≈ 0.319 µM) | MIC90 (Streptococcus pneumoniae; genotype mef, read-out: MIC90): 0.25 µg/mL (≈ 0.319 µM) | MIC50 (Streptococcus pneumoniae; [3]): 0.03 µg/mL (≈ 0.0383 µM) | MIC90 (Streptococcus pneumoniae; [4]): 0.03 µg/mL (≈ 0.0383 µM) | MIC50 (M. catarrhalis): 0.12 µg/mL (≈ 0.153 µM) | MIC90 (M. catarrhalis): 0.12 µg/mL (≈ 0.153 µM) | MIC50 (S. pyogenes; genotype ermB): 0.12 µg/mL (≈ 0.153 µM) | MIC90 (S. pyogenes; genotype ermB): 1 µg/mL (≈ 1.28 µM) | MIC50 (S. pyogenes; genotype mef, read-out: MIC50): 0.12 µg/mL (≈ 0.153 µM) | MIC90 (S. pyogenes; genotype mef, read-out: MIC90): 0.25 µg/mL (≈ 0.319 µM) | MIC50 (S. pyogenes; [3]): 0.03 µg/mL (≈ 0.0383 µM) | MIC90 (S. pyogenes; [4]): 0.03 µg/mL (≈ 0.0383 µM) | MIC50 (Haemophilus influenzae; resistant): > 8 µg/mL | MIC90 (Haemophilus influenzae; resistant): > 8 µg/mL | MIC50 (Haemophilus influenzae; sensitive): 2 µg/mL (≈ 2.55 µM) | MIC90 (Haemophilus influenzae; sensitive): 4 µg/mL (≈ 5.1 µM) | QT prolongation (% above vehicle) (anesthetized rats): −4 % above vehicle | effect on the QT interval in the rat (anesthetized rats; rat): did not prolong the QT interval | heart rate-corrected QT interval (QTc), FIG. 5 (male beagle dogs; male beagle dogs, intravenous infusion 15 mg/kg over 30 minutes): No significant increase in QTc | effects on cardiac parameters, including QT interval (male beagle dogs; telemetered dogs, intravenous infusion up to 15 mg/kg): no effects
